Measured values from patent US20090143279A1 (priority 2007, published 2009).
Read-outs that look alike come from different tables or passages of the source.

Experiments:
[1] = system: mitochondrial membrane potential; assay type: cell-based, mouse; details: for ΔΨm (composite Z-score): normalized score vs mock-treated (DMSO) wells
reactive oxygen species = assay type: cell-based, mouse; details: for ROS (composite Z-score): normalized score vs mock-treated (DMSO) wells
OXPHOS gene expression = assay type: cell-based, mouse; details: for GE-HTS (composite Z-score): normalized score vs mock-treated (DMSO) wells
nuOXPHOS transcripts = assay type: cell-based, mouse; details: for nucOX (composite Z-score): normalized score vs mock-treated (DMSO) wells
mtOXPHOS transcripts = assay type: cell-based, mouse; details: for mitoOX (composite Z-score): normalized score vs mock-treated (DMSO) wells
cytochrome c = assay type: cell-based, mouse; details: for cyt c (composite Z-score): normalized score vs mock-treated (DMSO) wells
C2C12 myotubes = details: for Viability (composite Z-score): normalized score vs mock-treated (DMSO) wells
[2] = system: cellular dehydrogenase activity; details: for MTT (composite Z-score): normalized score vs mock-treated (DMSO) wells
[3] = normalized composite Z-score vs mock-treated (DMSO) wells, Conc 20 μM
[4] = composite Z-score vs DMSO, Conc 8.94 μM
[5] = composite Z-score vs DMSO wells, Conc 20 μM
[6] = composite Z-score vs DMSO, Conc 20 μM
[7] = 20 μM, composite Z-score vs DMSO
[8] = composite Z-score vs mock-treated (DMSO) wells, Conc 20 μM

Chain of cytochrome c (P62897 whole entry): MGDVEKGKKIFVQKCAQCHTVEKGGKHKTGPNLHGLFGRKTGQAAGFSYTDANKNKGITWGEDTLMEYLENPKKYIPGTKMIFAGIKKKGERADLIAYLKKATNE

C[C@@H]1CC[C@@]2(OC1)O[C@H]1C[C@H]3[C@@H]4CC[C@H]5C[C@@H](O)CC[C@]5(C)C4=CC[C@]3(C)[C@H]1[C@@H]2C [hydroxy (3beta)isoallospirost-9 (11)-ene]
ΔΨm [1, 3]: −0.423 | ROS (reactive oxygen species; [3]): 0.244 | GE-HTS (OXPHOS gene expression; [3]): −0.457 | nucOX (nuOXPHOS transcripts; [3]): −0.619 | mitoOX (mtOXPHOS transcripts; [3]): −0.081 | cyt c (cytochrome c; [3]): −0.048 | Viability (C2C12 myotubes; [3]): 0.035 | MTT [2, 3]: −1.944

Nc1ccccc1C(=O)CC(N)C(=O)O (stereo not shown) [kynurenine]
ΔΨm [1, 3]: −0.058 | ROS (reactive oxygen species; [3]): 1.941 | GE-HTS (OXPHOS gene expression; [3]): −0.039 | nucOX (nuOXPHOS transcripts; [3]): −0.088 | mitoOX (mtOXPHOS transcripts; [3]): 0.069 | cyt c (cytochrome c; [3]): 0.162 | Viability (C2C12 myotubes; [3]): −0.110 | MTT [2, 3]: −0.912

Oc1nc2cc(Cl)c(Cl)cc2nc1O [2,3-dihydroxy-6,7-dichloroquinoxaline]
ΔΨm (composite Z-score) ([1]; Conc 20 μM): −1.689 | ROS (composite Z-score) (reactive oxygen species; Conc 20 μM): 0.085 | GE-HTS (composite Z-score) (OXPHOS gene expression; Conc 20 μM): −0.724 | nucOX (composite Z-score) (nuOXPHOS transcripts; Conc 20 μM): −0.712 | mitoOX (composite Z-score) (mtOXPHOS transcripts; Conc 20 μM): −0.565 | cyt c (composite Z-score) (cytochrome c; Conc 20 μM): 0.279 | Viability (composite Z-score) (C2C12 myotubes; Conc 20 μM): −0.077 | MTT (composite Z-score) ([2]; Conc 20 μM): −1.458

CN[C@@H]1[C@@H](O)[C@@H](O[C@@H]2[C@@H](O)[C@H](O[C@H]3OC(CN)=CC[C@H]3N)[C@@H](N)C[C@H]2N)OC[C@]1(C)O [sisomicin]
ΔΨm [1, 4]: −0.962 | ROS (reactive oxygen species; [4]): 1.889 | GE-HTS (OXPHOS gene expression; [4]): −0.448 | nucOX (nuOXPHOS transcripts; [4]): −0.337 | mitoOX (mtOXPHOS transcripts; [4]): −0.588 | cyt c (cytochrome c; [4]): 0.746 | Viability (C2C12 myotubes; [4]): −0.274 | MTT [2, 4]: −1.515

estrone hemisuccinate
ΔΨm [1, 5]: −0.573 | ROS (reactive oxygen species; [5]): 0.834 | GE-HTS (OXPHOS gene expression; [5]): 0.261 | nucOX (nuOXPHOS transcripts; [5]): 0.370 | mitoOX (mtOXPHOS transcripts; [5]): −0.003 | cyt c (cytochrome c; [5]): 0.250 | Viability (C2C12 myotubes; [5]): −0.076 | MTT [2, 5]: −0.686

CCCCCC1C(=O)CCC1CC(=O)O (stereo not shown) [dihydrojasmonic acid]
ΔΨm [1, 3]: −0.294 | ROS (reactive oxygen species; [3]): 0.827 | GE-HTS (OXPHOS gene expression; [3]): −0.313 | nucOX (nuOXPHOS transcripts; [3]): −0.168 | mitoOX (mtOXPHOS transcripts; [3]): −0.505 | cyt c (cytochrome c; [3]): −0.847 | Viability (C2C12 myotubes; [3]): −1.223 | MTT [2, 3]: −0.149

COc1cc([C@@H]2c3cc4c(cc3[C@@H](O[C@@H]3O[C@@H]5CO[C@@H](C)O[C@H]5[C@H](O)[C@H]3O)[C@H]3COC(=O)[C@H]23)OCO4)cc(OC)c1O [etoposide]
ΔΨm [1, 6]: 0.050 | ROS (reactive oxygen species; [6]): −1.736 | GE-HTS (OXPHOS gene expression; [6]): 0.725 | nucOX (nuOXPHOS transcripts; [6]): 0.355 | mitoOX (mtOXPHOS transcripts; [6]): 1.373 | cyt c (cytochrome c; [6]): −0.491 | Viability (C2C12 myotubes; [6]): −1.541 | MTT [2, 6]: −2.352

O[C@H]1[C@H]2c3cc4c(cc3CN3CCC(=C[C@@H]1O)[C@H]23)OCO4 [Lycorine, reference compound]
ΔΨm [1, 6]: −2.570 | ROS (reactive oxygen species; [6]): −2.639 | GE-HTS (OXPHOS gene expression; [6]): −1.119 | nucOX (nuOXPHOS transcripts; [6]): 1.103 | mitoOX (mtOXPHOS transcripts; [6]): −5.387 | cyt c (cytochrome c; [6]): −1.288 | Viability (C2C12 myotubes; [6]): −2.922 | MTT [2, 6]: −4.612

methylorsellinic acid, ethyl ester
ΔΨm [1, 3]: −0.478 | ROS (reactive oxygen species; [3]): −0.293 | GE-HTS (OXPHOS gene expression; [3]): −0.990 | nucOX (nuOXPHOS transcripts; [3]): −1.040 | mitoOX (mtOXPHOS transcripts; [3]): −0.770 | cyt c (cytochrome c; [3]): 0.754 | Viability (C2C12 myotubes; [3]): 0.459 | MTT [2, 3]: −0.661

C[C@@H]1[C@H]2[C@H](O[C@@H]3O[C@H](CO)[C@@H](O)[C@H](O)[C@H]3O)OC=C(C(=O)O)[C@H]2C[C@@H]1O [loganic acid]
ΔΨm (composite Z-score) ([1]; Conc 20 μM): −0.193 | ROS (composite Z-score) (reactive oxygen species; Conc 20 μM): −0.346 | GE-HTS (composite Z-score) (OXPHOS gene expression; Conc 20 μM): −0.463 | nucOX (composite Z-score) (nuOXPHOS transcripts; Conc 20 μM): −0.274 | mitoOX (composite Z-score) (mtOXPHOS transcripts; Conc 20 μM): −0.800 | cyt c (composite Z-score) (cytochrome c; Conc 20 μM): −0.485 | Viability (composite Z-score) (C2C12 myotubes; Conc 20 μM): 1.214 | MTT (composite Z-score) ([2]; Conc 20 μM): −0.538

CN1C(C)(C)CCCC1(C)C [pempidine]
ΔΨm [1]: −0.967 | ΔΨm [1, 6]: −0.376 | ROS (reactive oxygen species): 1.119 | ROS (reactive oxygen species; [6]): 0.861 | GE-HTS (OXPHOS gene expression): −0.656 | GE-HTS (OXPHOS gene expression; [6]): −0.874 | nucOX (nuOXPHOS transcripts): −0.425 | nucOX (nuOXPHOS transcripts; [6]): −1.035 | mitoOX (mtOXPHOS transcripts): −0.998 | mitoOX (mtOXPHOS transcripts; [6]): −0.378 | cyt c (cytochrome c): 0.163 | cyt c (cytochrome c; [6]): 0.146 | Viability (C2C12 myotubes): −1.023 | Viability (C2C12 myotubes; [6]): −0.822 | MTT [2]: −2.128 | MTT [2, 6]: −1.419

O=C(O)c1cccnc1C(=O)O [quinolinic acid]
ΔΨm [1, 7]: −1.023 | ROS (reactive oxygen species; [7]): 0.849 | GE-HTS (OXPHOS gene expression; [7]): −0.586 | nucOX (nuOXPHOS transcripts; [7]): −0.575 | mitoOX (mtOXPHOS transcripts; [7]): −0.519 | cyt c (cytochrome c; [7]): −0.222 | Viability (C2C12 myotubes; [7]): −0.516 | MTT [2, 7]: −1.118

CC(=O)C1=C(O)[C@@H]2[C@H]3c4c[nH]c5cccc(c45)C[C@H]3C(C)(C)N2C1=O [cyclopiazonic acid]
ΔΨm [1, 6]: 0.863 | ROS (reactive oxygen species; [6]): −0.293 | GE-HTS (OXPHOS gene expression; [6]): 0.186 | nucOX (nuOXPHOS transcripts; [6]): 0.163 | mitoOX (mtOXPHOS transcripts; [6]): 0.172 | cyt c (cytochrome c; [6]): 0.033 | Viability (C2C12 myotubes; [6]): −1.392 | MTT [2, 6]: −1.107

O=c1[nH]c(=O)n([C@H]2C[C@H](O)[C@@H](CO)O2)cc1F [floxuridine]
ΔΨm [1, 5]: −1.275 | ROS (reactive oxygen species; [5]): 0.063 | GE-HTS (OXPHOS gene expression; [5]): 0.909 | nucOX (nuOXPHOS transcripts; [5]): 0.993 | mitoOX (mtOXPHOS transcripts; [5]): 0.539 | cyt c (cytochrome c; [5]): −0.314 | Viability (C2C12 myotubes; [5]): −0.712 | MTT [2, 5]: −1.643

COC(=O)N/N=C/c1c[n+]([O-])c2ccccc2[n+]1[O-] [carbadox]
ΔΨm [1, 6]: −1.394 | ROS (reactive oxygen species; [6]): −0.079 | GE-HTS (OXPHOS gene expression; [6]): −0.802 | nucOX (nuOXPHOS transcripts; [6]): −0.599 | mitoOX (mtOXPHOS transcripts; [6]): −1.076 | cyt c (cytochrome c; [6]): −0.250 | Viability (C2C12 myotubes; [6]): −0.905 | MTT [2, 6]: −1.334

COC(=O)[C@@H]1OC(=O)[C@H]2O[C@@]23[C@@]1(C)CCC1[C@@]2(C)CCC(=O)C(C)(C)C2C[C@@H](OC(C)=O)[C@]13C (stereo partly shown) [dihydrogeduninic acid, methyl ester]
ΔΨm (composite Z-score) ([1]; Conc 20 μM): −0.571 | ROS (composite Z-score) (reactive oxygen species; Conc 20 μM): 0.820 | GE-HTS (composite Z-score) (OXPHOS gene expression; Conc 20 μM): 0.739 | nucOX (composite Z-score) (nuOXPHOS transcripts; Conc 20 μM): 0.881 | mitoOX (composite Z-score) (mtOXPHOS transcripts; Conc 20 μM): 0.289 | cyt c (composite Z-score) (cytochrome c; Conc 20 μM): 0.117 | Viability (composite Z-score) (C2C12 myotubes; Conc 20 μM): 0.488 | MTT (composite Z-score) ([2]; Conc 20 μM): −1.004

Cc1cc(O)c(C=O)c(O)c1C(=O)O [haematommic acid]
ΔΨm [1, 6]: 0.002 | ROS (reactive oxygen species; [6]): −1.077 | GE-HTS (OXPHOS gene expression; [6]): −0.410 | nucOX (nuOXPHOS transcripts; [6]): −0.078 | mitoOX (mtOXPHOS transcripts; [6]): −1.067 | cyt c (cytochrome c; [6]): 0.631 | Viability (C2C12 myotubes; [6]): −0.412 | MTT [2, 6]: −0.740

CC(C)[C@@H](C)/C=C/[C@@H](C)[C@H]1CC[C@H]2C3=CC=C4C[C@@H](O)CC[C@]4(C)[C@H]3CC[C@]12C [ergosterol]
ΔΨm [1, 6]: −0.489 | ROS (reactive oxygen species; [6]): −0.198 | GE-HTS (OXPHOS gene expression; [6]): 0.231 | nucOX (nuOXPHOS transcripts; [6]): 0.420 | mitoOX (mtOXPHOS transcripts; [6]): −0.240 | cyt c (cytochrome c; [6]): 0.386 | Viability (C2C12 myotubes; [6]): −0.792 | MTT [2, 6]: −1.864

COc1cc2occc2c2oc(=O)ccc12 [isobergaptene]
ΔΨm [1, 8]: −0.112 | ROS (reactive oxygen species; [8]): 1.329 | GE-HTS (OXPHOS gene expression; [8]): 0.514 | nucOX (nuOXPHOS transcripts; [8]): 0.338 | mitoOX (mtOXPHOS transcripts; [8]): 0.715 | cyt c (cytochrome c; [8]): 0.486 | Viability (C2C12 myotubes; [8]): 0.375 | MTT [2, 8]: −1.025
